Test results from patent publication US20160075653A1, “NEMATICIDAL N-(PHENYLCYCLOALKYL)CARBOXAMIDES AND N-(PHENYLCYCLOALKYL)THIOCARBOXAMIDES” (BAYER CROPSCIENCE AKTIENGESELLSCHAFT, priority 2013, published 2016).

assay: Measurement of log P values by HPLC on reversed phase columns (methods [a] pH 2.3, [b] pH 2.7, [c] pH 7.8); assay type: physicochemical; settings: HPLC on reversed phase column, method [b], pH 2.7
Summary of the method: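 Retention times were converted to log P by linear interpolation between linear alkan-2-one standards (3 to 16 carbons) of known log P. Eluents, each with 10% to 95% acetonitrile gradient: phosphoric acid 0.1% at pH 2.3 [a]; formic acid 0.1% at pH 2.7, LC-MS [b]; ammonium hydrogen carbonate 0.001 molar at pH 7.8, LC-MS [c].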

SMILES | logP
O=C(N[C@@H]1CC[C@H]1c1ccc(Cl)cc1C(F)(F)F)c1nccnc1Cl (relative stereo) [Example 716] | 3.56^[b]
CC1=C(C(=O)N[C@@H]2C[C@@H]2c2ccc(Cl)cc2Cl)SCCO1 (relative stereo) [Example 615] | 3.06^[b]
O=C(NC1CCC1c1ccccc1C(F)(F)F)c1nccnc1C(F)(F)F (stereo not shown) [Example 687] | 3.31^[b]
O=C(N[C@@H]1CC[C@@H]1c1ccc(Cl)cc1C(F)(F)F)c1c(F)cccc1F (relative stereo) [Example 702] | 3.52^[b]

Results, then the compound that gave them:

logP | SMILES
3.75^[b] | O=C(N[C@@H]1CC[C@@H]1c1ccc(Cl)cc1C(F)(F)F)c1ccccc1Cl (relative stereo) [Example 666]
4.10^[b] | O=C(N[C@@H]1CC[C@H]1c1ccc(Cl)cc1C(F)(F)F)c1ccccc1C(F)(F)F (relative stereo) [Example 703]
4.20^[b] | O=C(N[C@@H]1CC[C@@H]1c1ccc(Cl)cc1Cl)c1sccc1I (relative stereo) [Example 671]
4.01^[b] | O=C(N[C@@H]1CC[C@H]1c1ccc(Cl)cc1C(F)(F)F)c1ccccc1Cl (relative stereo) [Example 697]
3.30^[b] | O=C(N[C@@H]1CC[C@H]1c1cccc(F)c1C(F)(F)F)c1ncccc1Cl (relative stereo) [Example 616]
3.49^[b] | O=C(N[C@@H]1CC[C@@H]1c1ccc(Cl)cc1C(F)(F)F)c1ncccc1Cl (relative stereo) [Example 699]

same assay, conditions: HPLC on reversed phase column, method [c], pH 7.8

logP | SMILES
3.01^[c]; | CC1=C(C(=O)N[C@@H]2C[C@@H]2c2ccc(Cl)cc2Cl)SCCO1 (relative stereo) [Example 615]
3.25^[c]; | O=C(NC1CCC1c1ccccc1C(F)(F)F)c1nccnc1C(F)(F)F (stereo not shown) [Example 687]

same assay, conditions: HPLC on reversed phase columns, method [b], pH 2.7

SMILES | logP
Cc1nn(C)c(F)c1C(=O)NC1CC1c1ccc(F)cc1 (stereo not shown) [Example 18] | 3.01^[b]
Cn1cc(C(=O)N[C@@H]2CCC[C@H]2c2ccc(F)c(F)c2)c(C(F)F)n1 (relative stereo) [Example 125] | 2.88^[b]
Nc1nc(C(F)(F)F)c(C(=O)N[C@@H]2CCC[C@@H]2c2ccc(F)c(F)c2)s1 (relative stereo) [Example 97] | 2.82^[b]
O=C(N[C@@H]1CCC[C@@H]1c1ccc(F)c(F)c1)c1cnccc1C(F)(F)F (relative stereo) [Example 89] | 2.92^[b]
O=C(NC1CC1c1ccc(F)cc1)c1cnc(Cl)cc1Cl (stereo not shown) [Example 36] | 2.70^[b]
O=C(N[C@@H]1CCC[C@@H]1c1ccc(F)c(F)c1)c1ccccc1Cc1ccccc1 (relative stereo) [Example 98] | 4.26^[b]
Cc1ncncc1C(=O)N[C@@H]1CCC[C@@H]1c1ccc(F)c(F)c1 (relative stereo) [Example 65] | 2.15^[b]
Cn1cc(C(=O)N[C@@H]2CCC[C@@H]2c2ccc(F)c(F)c2)c(I)n1 (relative stereo) [Example 99] | 2.75^[b]
Cc1nn(C)c(F)c1C(=O)N[C@@H]1CCC[C@@H]1c1ccc(F)c(F)c1 (relative stereo) [Example 77] | 2.60^[b]
O=C(N[C@@H]1CCC[C@@H]1c1ccc(F)c(F)c1)c1sccc1Br (relative stereo) [Example 96] | 3.79^[b]

Next, values leading:

logP | SMILES
3.32^[b] | O=C(N[C@@H]1C[C@H]1c1ccccc1Cl)c1c(Cl)cccc1Cl (relative stereo) [Example 50]
2.68^[b] | O=C(N[C@@H]1C[C@H]1c1ccccc1)c1ccccc1Cl (relative stereo) [Example 46]

same assay, conditions: HPLC reversed phase, method [b] (pH 2.7)

SMILES | logP
CC(C)Oc1ccc([C@H]2CCC[C@H]2NC(=O)c2nccnc2Cl)cc1 (relative stereo) [Example 335] | 3.23^[b]
Cc1nc(C)c(C(=O)NC2CCCC2c2ccc(Cl)cc2)s1 (stereo not shown) [Example 284] | 3.11^[b]
O=C(NC1CCC1c1ccccc1C(F)(F)F)c1ccccc1Cl (stereo not shown) [Example 433] | 3.01^[b]
Cc1nc(C(F)(F)F)c(C(=O)N[C@@H]2CC[C@H]2c2ccc(F)cc2C(F)(F)F)s1 (relative stereo) [Example 530] | 3.60^[b]
Cc1nn(C)cc1C(=O)NC1CCCC1c1ccc(Cl)cc1 (stereo not shown) [Example 277] | 2.31^[b]
O=C(NC1CCC1c1ccccc1C(F)(F)F)c1ccccc1I (stereo not shown) [Example 428] | 3.42^[b]
O=C(N[C@@H]1CC[C@@H]1c1ccc(F)cc1C(F)(F)F)c1ccc(Cl)cc1 (relative stereo) [Example 508] | 3.62^[b]
O=C(NC1CC1c1ccccc1C(F)(F)F)c1cccnc1C(F)(F)F (stereo not shown) [Example 500] | 2.79^[b]
O=C(N[C@@H]1CC[C@@H]1c1cc(F)ccc1C(F)(F)F)c1ccc(Cl)cc1 (relative stereo) [Example 527] | 3.63^[b]
Cc1nn(C)cc1C(=O)NC1CCCC1c1ccccc1Br (stereo not shown) [Example 345] | 3.69^[b]
CC(C)Oc1ccc([C@H]2CCC[C@H]2NC(=O)c2nccnc2C(F)(F)F)cc1 (relative stereo) [Example 340] | 3.62^[b]
O=C(N[C@@H]1CCC[C@@H]1c1ccccc1F)c1nccnc1Cl (relative stereo) [Example 336] | 2.61^[b]

Next, values leading:

logP | SMILES
4.53^[b] | O=C(N[C@@H]1CC[C@H]1c1ccc(Cl)cc1Cl)c1ncc(C(F)(F)F)cc1Cl (relative stereo) [Example 258]
2.89^[b] | O=C(N[C@@H]1CC[C@H]1c1ccccc1Cl)c1cccnc1C(F)(F)F (relative stereo) [Example 245]
3.28^[b] | O=C(NC1CCCC1c1ccc(Cl)cc1)c1c(F)cccc1F (stereo not shown) [Example 282]
3.36^[b] | O=C(NC1CCC1c1ccccc1Cl)c1cccc(Cl)c1 (stereo not shown) [Example 448]
3.69^[b] | O=C(N[C@@H]1CC[C@H]1c1ccc(Cl)cc1Cl)c1ncccc1Cl (relative stereo) [Example 257]
4.49^[b] | O=C(NC1CCCCC1c1ccc(Cl)cc1Cl)c1ccccc1C(F)(F)F (stereo not shown) [Example 412]
3.35^[b] | O=C(N[C@@H]1CC[C@H]1c1cccc(F)c1C(F)(F)F)c1ccccc1 (relative stereo) [Example 591]
4.22^[b] | O=C(NC1CCCCC1c1ccccc1C(F)(F)F)c1ccccc1I (stereo not shown) [Example 373]
3.26^[b] | O=C(NC1CCC1c1c(F)cccc1F)c1cccc(Cl)c1 (stereo not shown) [Example 442]
3.75^[b] | O=C(NC1CCC1c1ccccc1Cl)c1cccc(Cl)c1 (stereo not shown) [Example 445]

same assay, conditions: HPLC reversed phase, method [c] pH 7.8

logP | SMILES
3.21^[c]; | CC(C)Oc1ccc([C@H]2CCC[C@H]2NC(=O)c2nccnc2Cl)cc1 (relative stereo) [Example 335]
3.55^[c]; | CC(C)Oc1ccc([C@H]2CCC[C@H]2NC(=O)c2nccnc2C(F)(F)F)cc1 (relative stereo) [Example 340]
2.55^[c]; | O=C(N[C@@H]1CCC[C@@H]1c1ccccc1F)c1nccnc1Cl (relative stereo) [Example 336]

same assay, conditions: method [b], HPLC reversed phase, pH 2.7

SMILES | logP
Cn1cc(C(=O)NC2CCCCC2c2ccccc2)c(C(F)F)n1 (stereo not shown) [Example 185] | 2.76^[b]
Cc1nn(C)c(F)c1C(=O)N(C1CC1)C1CCCCC1c1ccc(Cl)cc1Cl (stereo not shown) [Example 165] | 4.59^[b]
Cc1nc(C(F)(F)F)c(C(=O)N(C2CC2)C2CCCCC2c2ccccc2)s1 (stereo not shown) [Example 147] | 4.69^[b]
Cc1cc(C(=O)N(C2CC2)C2CCCC2c2ccccc2Cl)c(C)o1 (stereo not shown) [Example 176] | 4.95^[b]
Cn1nc(C(F)F)c(C(=O)NC2CCCCC2c2ccccc2)c1Cl (stereo not shown) [Example 184] | 3.33^[b]
Cn1cc(C(=O)N[C@@H]2CCC[C@H]2c2ccc(F)c(F)c2)c(=O)[nH]1 (relative stereo) [Example 135] | 2.18^[b]

The remaining lines, values ahead:

logP | SMILES
3.14^[b] | O=C(NC1CC1c1ccccc1Cl)c1ccccc1I (stereo not shown) [Example 229]
2.96^[b] | N#Cc1ccccc1C(=O)NC1CCCC1c1ccc(F)c(F)c1 (stereo not shown) [Example 137]

same assay, conditions: reversed phase HPLC columns, pH 2.7, HPLC on reversed phase columns, method [b] (pH 2.7); read-out: logP

chromatographic logP | SMILES
3.56 | O=C(N[C@@H]1CC[C@@H]1c1c(Cl)cccc1Cl)c1ccccc1Cl [Example 742]
